# Experiments:
# [1] = test system: Nucleic Acid; experiment: Duplex stability of RNA counter strand assessed as melting temperature; format: nucleic-acid assay
# [2] = test system: Nucleic Acid; experiment: Duplex stability of DNA counter strand assessed as melting temperature; format: nucleic-acid assay
# [3] = Antisense effect in human 607B cells assessed as down-regulation of bcl2 expression at 100 nM after 48 hrs by Western blot analysis relative to control; format: functional
smiles,measurement,setting,value
Cc1cn([C@H]2C[C@H](OP(O)(=S)OC[C@H]3O[C@@H](n4ccc(N)nc4=O)[C@H](O)[C@@H]3OP(O)(=S)OC[C@H]3O[C@@H](n4cc(C)c(=O)[nH]c4=O)C[C@@H]3O)[C@@H](COP(O)(=S)O[C@H]3[C@@H](O)[C@H](n4ccc(N)nc4=O)O[C@@H]3COP(O)(=S)O[C@H]3[C@@H](O)[C@H](n4ccc(N)nc4=O)O[C@@H]3COP(O)(=S)O[C@H]3[C@@H](O)[C@H](n4ccc(N)nc4=O)O[C@@H]3COP(O)(=S)O[C@H]3[C@@H](O)[C@H](n4cnc5c(N)ncnc54)O[C@@H]3COP(O)(=S)O[C@H]3[C@@H](O)[C@H](n4cnc5c(=O)[nH]c(N)nc54)O[C@@H]3COP(O)(=S)O[C@H]3[C@@H](O)[C@H](n4ccc(N)nc4=O)O[C@@H]3COP(O)(=S)O[C@H]3[C@@H](O)[C@H](n4cnc5c(=O)[nH]c(N)nc54)O[C@@H]3COP(O)(=S)O[C@H]3C[C@H](n4cc(C)c(=O)[nH]c4=O)O[C@@H]3COP(O)(=S)O[C@H]3[C@@H](O)[C@H](n4cnc5c(=O)[nH]c(N)nc54)O[C@@H]3COP(O)(=S)O[C@H]3[C@@H](O)[C@H](n4ccc(N)nc4=O)O[C@@H]3COP(O)(=S)O[C@H]3[C@@H](O)[C@H](n4cnc5c(=O)[nH]c(N)nc54)O[C@@H]3COP(O)(=S)O[C@H]3[C@@H](O)[C@H](n4ccc(N)nc4=O)O[C@@H]3COP(O)(=S)O[C@H]3[C@@H](O)[C@H](n4ccc(N)nc4=O)O[C@@H]3COP(O)(=S)O[C@H]3[C@@H](O)[C@H](n4cnc5c(N)ncnc54)O[C@@H]3COP(O)(=S)O[C@H]3[C@@H](NCCCNCCCCNCCCN)[C@H](n4ccc(=O)[nH]c4=O)O[C@@H]3CO)O2)c(=O)[nH]c1=O (stereo partly drawn),Tm,[1],53.5 °C
same,Tm,[2],68.5 °C
same,Activity,[3],19.4%
Cc1cn([C@H]2C[C@H](OP(=O)(O)OC[C@H]3O[C@@H](n4cnc5c(N)ncnc54)[C@H](O)[C@@H]3OP(=O)(O)OC[C@H]3O[C@@H](n4ccc(N)nc4=O)[C@H](O)[C@@H]3OP(=O)(O)OC[C@H]3O[C@@H](n4ccc(N)nc4=O)[C@H](O)[C@@H]3OP(=O)(O)OC[C@H]3O[C@@H](n4cnc5c(=O)[nH]c(N)nc54)[C@H](O)[C@@H]3OP(=O)(O)OC[C@H]3O[C@@H](n4ccc(N)nc4=O)[C@H](O)[C@@H]3OP(=O)(O)OC[C@H]3O[C@@H](n4cnc5c(=O)[nH]c(N)nc54)[C@H](O)[C@@H]3OP(=O)(O)OC[C@H]3O[C@@H](n4ccc(=O)[nH]c4=O)[C@H](NCCCNCCCCNCCCN)[C@@H]3OP(=O)(O)OC[C@H]3O[C@@H](n4cnc5c(=O)[nH]c(N)nc54)[C@H](O)[C@@H]3OP(=O)(O)OC[C@H]3O[C@@H](n4ccc(N)nc4=O)[C@H](O)[C@@H]3OP(=O)(O)OC[C@H]3O[C@@H](n4cnc5c(=O)[nH]c(N)nc54)[C@H](O)[C@@H]3OP(=O)(O)OC[C@H]3O[C@@H](n4cnc5c(N)ncnc54)[C@H](O)[C@@H]3OP(=O)(O)OC[C@H]3O[C@@H](n4ccc(N)nc4=O)[C@H](O)[C@@H]3OP(=O)(O)OC[C@H]3O[C@@H](n4ccc(N)nc4=O)[C@H](O)[C@@H]3OP(=O)(O)OC[C@H]3O[C@@H](n4ccc(N)nc4=O)[C@H](O)[C@@H]3OP(=O)(O)OC[C@H]3O[C@@H](n4cc(C)c(=O)[nH]c4=O)C[C@@H]3OP(=O)(O)OC[C@H]3O[C@@H](n4ccc(N)nc4=O)[C@H](O)[C@@H]3OP(=O)(O)OC[C@H]3O[C@@H](n4ccc(=O)[nH]c4=O)[C@H](NCCCNCCCCNCCCN)[C@@H]3O)[C@@H](CO)O2)c(=O)[nH]c1=O,Tm,[1],57.8 °C
same,Tm,[2],74.5 °C
Cc1cn([C@H]2C[C@H](OP(O)(=S)OC[C@H]3O[C@@H](n4cnc5c(N)ncnc54)[C@H](O)[C@@H]3OP(O)(=S)OC[C@H]3O[C@@H](n4ccc(N)nc4=O)[C@H](O)[C@@H]3OP(O)(=S)OC[C@H]3O[C@@H](n4ccc(N)nc4=O)[C@H](O)[C@@H]3OP(O)(=S)OC[C@H]3O[C@@H](n4cnc5c(=O)[nH]c(N)nc54)[C@H](O)[C@@H]3OP(O)(=S)OC[C@H]3O[C@@H](n4ccc(N)nc4=O)[C@H](O)[C@@H]3OP(O)(=S)OC[C@H]3O[C@@H](n4cnc5c(=O)[nH]c(N)nc54)[C@H](O)[C@@H]3OP(O)(=S)OC[C@H]3O[C@@H](n4cc(C)c(=O)[nH]c4=O)C[C@@H]3OP(O)(=S)OC[C@H]3O[C@@H](n4cnc5c(=O)[nH]c(N)nc54)[C@H](O)[C@@H]3OP(O)(=S)OC[C@H]3O[C@@H](n4ccc(N)nc4=O)[C@H](O)[C@@H]3OP(O)(=S)OC[C@H]3O[C@@H](n4cnc5c(=O)[nH]c(N)nc54)[C@H](O)[C@@H]3OP(O)(=S)OC[C@H]3O[C@@H](n4cnc5c(N)ncnc54)[C@H](O)[C@@H]3OP(O)(=S)OC[C@H]3O[C@@H](n4ccc(N)nc4=O)[C@H](O)[C@@H]3OP(O)(=S)OC[C@H]3O[C@@H](n4ccc(N)nc4=O)[C@H](O)[C@@H]3OP(O)(=S)OC[C@H]3O[C@@H](n4ccc(N)nc4=O)[C@H](O)[C@@H]3OP(O)(=S)OC[C@H]3O[C@@H](n4cc(C)c(=O)[nH]c4=O)C[C@@H]3OP(O)(=S)OC[C@H]3O[C@@H](n4ccc(N)nc4=O)[C@H](O)[C@@H]3OP(O)(=S)OC[C@H]3O[C@@H](n4ccc(=O)[nH]c4=O)[C@H](NCCCNCCCCNCCCN)[C@@H]3O)[C@@H](CO)O2)c(=O)[nH]c1=O (stereo partly drawn),Tm,[1],53.2 °C
same,Tm,[2],74.3 °C
Cc1cn([C@H]2C[C@H](OP(=O)(O)OC[C@H]3O[C@@H](n4cnc5c(N)ncnc54)[C@H](O)[C@@H]3OP(=O)(O)OC[C@H]3O[C@@H](n4ccc(N)nc4=O)[C@H](O)[C@@H]3OP(=O)(O)OC[C@H]3O[C@@H](n4ccc(N)nc4=O)[C@H](O)[C@@H]3OP(=O)(O)OC[C@H]3O[C@@H](n4cnc5c(=O)[nH]c(N)nc54)[C@H](O)[C@@H]3OP(=O)(O)OC[C@H]3O[C@@H](n4ccc(N)nc4=O)[C@H](O)[C@@H]3OP(=O)(O)OC[C@H]3O[C@@H](n4cnc5c(=O)[nH]c(N)nc54)[C@H](O)[C@@H]3OP(=O)(O)OC[C@H]3O[C@@H](n4cc(C)c(=O)[nH]c4=O)C[C@@H]3OP(=O)(O)OC[C@H]3O[C@@H](n4cnc5c(=O)[nH]c(N)nc54)[C@H](O)[C@@H]3OP(=O)(O)OC[C@H]3O[C@@H](n4ccc(N)nc4=O)[C@H](O)[C@@H]3OP(=O)(O)OC[C@H]3O[C@@H](n4cnc5c(=O)[nH]c(N)nc54)[C@H](O)[C@@H]3OP(=O)(O)OC[C@H]3O[C@@H](n4cnc5c(N)ncnc54)[C@H](O)[C@@H]3OP(=O)(O)OC[C@H]3O[C@@H](n4ccc(N)nc4=O)[C@H](O)[C@@H]3OP(=O)(O)OC[C@H]3O[C@@H](n4ccc(N)nc4=O)[C@H](O)[C@@H]3OP(=O)(O)OC[C@H]3O[C@@H](n4ccc(N)nc4=O)[C@H](O)[C@@H]3OP(=O)(O)OC[C@H]3O[C@@H](n4cc(C)c(=O)[nH]c4=O)C[C@@H]3OP(=O)(O)OC[C@H]3O[C@@H](n4ccc(N)nc4=O)[C@H](O)[C@@H]3OP(=O)(O)OC[C@H]3O[C@@H](n4cc(C)c(=O)[nH]c4=O)C[C@@H]3O)[C@@H](CO)O2)c(=O)[nH]c1=O,Tm,[1],65.3 °C
same,Tm,[2],79 °C
Cc1cn([C@H]2C[C@H](OP(O)(=S)OC[C@H]3O[C@@H](n4cnc5c(N)ncnc54)[C@H](O)[C@@H]3OP(O)(=S)OC[C@H]3O[C@@H](n4ccc(N)nc4=O)[C@H](O)[C@@H]3OP(O)(=S)OC[C@H]3O[C@@H](n4ccc(N)nc4=O)[C@H](O)[C@@H]3OP(O)(=S)OC[C@H]3O[C@@H](n4cnc5c(=O)[nH]c(N)nc54)[C@H](O)[C@@H]3OP(O)(=S)OC[C@H]3O[C@@H](n4ccc(N)nc4=O)[C@H](O)[C@@H]3OP(O)(=S)OC[C@H]3O[C@@H](n4cnc5c(=O)[nH]c(N)nc54)[C@H](O)[C@@H]3OP(O)(=S)OC[C@H]3O[C@@H](n4ccc(=O)[nH]c4=O)[C@H](NCCCNCCCCNCCCN)[C@@H]3OP(O)(=S)OC[C@H]3O[C@@H](n4cnc5c(=O)[nH]c(N)nc54)[C@H](O)[C@@H]3OP(O)(=S)OC[C@H]3O[C@@H](n4ccc(N)nc4=O)[C@H](O)[C@@H]3OP(O)(=S)OC[C@H]3O[C@@H](n4cnc5c(=O)[nH]c(N)nc54)[C@H](O)[C@@H]3OP(O)(=S)OC[C@H]3O[C@@H](n4cnc5c(N)ncnc54)[C@H](O)[C@@H]3OP(O)(=S)OC[C@H]3O[C@@H](n4ccc(N)nc4=O)[C@H](O)[C@@H]3OP(O)(=S)OC[C@H]3O[C@@H](n4ccc(N)nc4=O)[C@H](O)[C@@H]3OP(O)(=S)OC[C@H]3O[C@@H](n4ccc(N)nc4=O)[C@H](O)[C@@H]3OP(O)(=S)OC[C@H]3O[C@@H](n4cc(C)c(=O)[nH]c4=O)C[C@@H]3OP(O)(=S)OC[C@H]3O[C@@H](n4ccc(N)nc4=O)[C@H](O)[C@@H]3OP(O)(=S)OC[C@H]3O[C@@H](n4ccc(=O)[nH]c4=O)[C@H](NCCCNCCCCNCCCN)[C@@H]3O)[C@@H](CO)O2)c(=O)[nH]c1=O (stereo partly drawn),Tm,[1],53 °C
same,Tm,[2],66.8 °C
Cc1cn([C@@H]2O[C@H](COP(=O)(O)O[C@H]3[C@@H](O)[C@H](n4ccc(N)nc4=O)O[C@@H]3COP(=O)(O)O[C@H]3[C@@H](O)[C@H](n4ccc(N)nc4=O)O[C@@H]3COP(=O)(O)O[C@H]3[C@@H](O)[C@H](n4ccc(N)nc4=O)O[C@@H]3COP(=O)(O)O[C@H]3[C@@H](O)[C@H](n4cnc5c(N)ncnc54)O[C@@H]3COP(=O)(O)O[C@H]3[C@@H](O)[C@H](n4cnc5c(=O)[nH]c(N)nc54)O[C@@H]3COP(=O)(O)O[C@H]3[C@@H](O)[C@H](n4ccc(N)nc4=O)O[C@@H]3COP(=O)(O)O[C@H]3[C@@H](O)[C@H](n4cnc5c(=O)[nH]c(N)nc54)O[C@@H]3COP(=O)(O)O[C@H]3[C@@H](NCCCNCCCCNCCCN)[C@H](n4ccc(=O)[nH]c4=O)O[C@@H]3COP(=O)(O)O[C@H]3[C@@H](O)[C@H](n4cnc5c(=O)[nH]c(N)nc54)O[C@@H]3COP(=O)(O)O[C@H]3[C@@H](O)[C@H](n4ccc(N)nc4=O)O[C@@H]3COP(=O)(O)O[C@H]3[C@@H](O)[C@H](n4cnc5c(=O)[nH]c(N)nc54)O[C@@H]3COP(=O)(O)O[C@H]3[C@@H](O)[C@H](n4ccc(N)nc4=O)O[C@@H]3COP(=O)(O)O[C@H]3[C@@H](O)[C@H](n4ccc(N)nc4=O)O[C@@H]3COP(=O)(O)O[C@H]3[C@@H](O)[C@H](n4cnc5c(N)ncnc54)O[C@@H]3COP(=O)(O)O[C@H]3C[C@H](n4cc(C)c(=O)[nH]c4=O)O[C@@H]3CO)[C@@H](OP(=O)(O)OC[C@H]3O[C@@H](n4ccc(N)nc4=O)[C@H](O)[C@@H]3OP(=O)(O)OC[C@H]3O[C@@H](n4ccc(=O)[nH]c4=O)[C@H](NCCCNCCCCNCCCN)[C@@H]3O)[C@H]2NCCCNCCCCNCCCN)c(=O)[nH]c1=O,Tm,[1],45.8 °C
same,Tm,[2],70.6 °C
